Test results: ChEMBL document CHEMBL6134857, “Novel Spiro-Barbiturates Can Reverse the Action of General Anesthetics on the GABAAR” (J Med Chem, 2025)
Active and inactive are the calls of the source. The rule behind the calls is not given here.

Columns and labels:
Format in all cases: cell membranes
[1] = biological target: T1, GABA-A receptor; alpha-1/beta-3/gamma-2 (Homo sapiens) (UniProt P14867+P18507+P28472); test: Effect on [3H]muscimol binding to full length human N-terminal flag-tagged alpha1-beta3-C-terminal 1D4-tagged gamma2 GABAA receptor extracted from Tetracycline-resistant HEK293 cell membrane assessed as fold change in [3H]muscimol binding at 300 uM incubated for 30 mins; settings: filed as modulator
[2] = biological target: T1, GABA-A receptor; alpha-1/beta-3/gamma-2 (Homo sapiens); test: Inhibition of R-mTFD-MPAB-induced [3H]muscimol binding to full length human N-terminal flag-tagged alpha1-beta3-C-terminal 1D4-tagged gamma2 GABAA receptor extracted from Tetracycline-resistant HEK293 cell membrane assessed as fold change at 300 uM incubated for 30 mins; settings: filed as modulator
[3] = biological target: T1, GABA-A receptor; alpha-1/beta-3/gamma-2 (Homo sapiens); test: (§1) Modulation of [3H]flunitrazepam binding to full length human N-terminal flag-tagged alpha1-beta3-C-terminal 1D4-tagged gamma2 GABAA receptor extracted from Tetracycline-resistant HEK293 cell membrane assessed as fold change in [3H]flunitrazepam binding at 300 uM incubated for 30 mins; settings: filed as modulator
[4] = biological target: T1, GABA-A receptor; alpha-1/beta-3/gamma-2 (Homo sapiens); test: as §1, with “Inhibition” for “Modulation”, “reduction” for “fold change”, “mins relative to control” for “mins”
[5] = biological target: T1, GABA-A receptor; alpha-1/beta-3/gamma-2 (Homo sapiens); test: Effect on [3H]muscimol binding to full length human N-terminal flag-tagged alpha1-beta3-C-terminal 1D4-tagged gamma2 GABAA receptor extracted from Tetracycline-resistant HEK293 cell membrane assessed as [3H]muscimol binding at 300 uM incubated for 30 mins relative to control
[6] = biological target: T1, GABA-A receptor; alpha-1/beta-3/gamma-2 (Homo sapiens); test: Inhibition of R-mTFD-MPAB-induced [3H]muscimol binding to full length human N-terminal flag-tagged alpha1-beta3-C-terminal 1D4-tagged gamma2 GABAA receptor extracted from Tetracycline-resistant HEK293 cell membrane at 300 uM incubated for 30 mins relative to control

| SMILES | fold change (FC) [1] | fold change (FC) [2] | fold change (FC) [3] | inhibition [4] | Activity [5] | inhibition [6] | Activity ([5]; filed as modulator) |
| --- | --- | --- | --- | --- | --- | --- | --- |
| COc1ccc2c(c1)C1(CC2)C(=O)NC(=O)N(C)C1=O (stereo in doubt; 7h-2) | 0.37 | 0.73 | 0.88 | 12% | – | – | – |
| N=C1NC(=O)C2(CCc3ccc(F)cc32)C(=O)N1 (stereo unspecified) | -0.02 | 0.58 | – | – | < 10% | > 40% | – |
| O=C1NC(=O)C2(CC(O)c3ccccc32)C(=O)N1 (stereo in doubt; 1t-2) | 0.02 | 0.55 | – | – | inactive | 45% | – |
| CC1Cc2ccccc2C12C(=O)NC(=O)NC2=O (stereo in doubt; 10g-2) | 0.13 | 0.95 | – | – | – | – | – |
| NC1CC2(C(=O)NC(=O)NC2=O)c2ccccc21 (racemic) | 0.1 | 0.81 | – | – | inactive | 19% | – |
| CCCN1C(=O)NC(=O)C2(CCc3ccccc32)C1=O (stereo in doubt; 1j-2) | 0.05 | 0.95 | – | – | – | – | – |
| CCCN1C(=O)NC(=O)C2(CCc3ccccc32)C1=O (stereo in doubt; 1j-1) | 0.31 | 0.95 | – | – | – | – | – |
| O=C1NC(=NO)NC(=O)C12CCc1ccccc12 (stereo unspecified) | 0.07 | 0.66 | – | – | – | – | – |
| CN1C(=O)NC(=O)[C@]2(CCc3ccccc32)C1=O | 0.16 | 0.67 | 0.67 | 12% | – | – | – |
| Cc1ccc2c(c1)C1(CC2)C(=O)NC(=O)NC1=O | 0.06 | 0.87 | – | – | < 10% | > 40% | – |
| N#CSC1CC2(C(=O)NC(=O)NC2=O)c2ccccc21 (stereo in doubt; 1y-1) | 0.2 | 0.61 | – | – | – | – | – |
| COc1ccc2c(c1)C1(CC2)C(=O)NC(=O)N(C)C1=O (stereo in doubt; 7h-1) | 0.36 | 1.06 | 0.55 | 45% | – | – | – |
| CC1CC2(C(=O)NC(=O)NC2=O)c2ccccc21 (stereo in doubt; 11g-2) | 0.15 | 0.99 | – | – | – | – | – |
| Cc1ccc2c(c1)C1(CC2)C(=O)NC(=S)NC1=O | 0.02 | 0.94 | – | – | < 10% | > 40% | – |
| O=C1NC(=O)C2(CCc3ccc(Br)cc32)C(=O)N1 | 0.05 | 0.9 | – | – | < 10% | > 40% | – |
| O=C1NC(=O)C2(CCCc3ccccc32)C(=O)N1 | 0.08 | 0.97 | 0.45 | 12% | – | – | – |
| CN1C(=O)NC(=O)C2(CCCCc3ccccc32)C1=O (stereo in doubt; 3h-1) | 0.32 | 0.93 | – | – | – | – | – |
| NN=C1NC(=O)C2(CCc3ccccc32)C(=O)N1 (stereo unspecified) | -0.02 | 0.66 | – | – | – | – | – |
| Cc1ccc2c(c1)C1(CC2)C(=O)NC(=O)N(C)C1=O (stereo in doubt; 4h-2) | 0.37 | 0.54 | 0.72 | 12% | – | – | – |
| CC1CC2(C(=O)NC(=O)NC2=O)c2ccccc21 (stereo in doubt; 11g-1) | 0.06 | 0.96 | – | – | – | – | – |
| COc1ccc2c(c1)C1(CC2)C(=O)NC(=O)NC1=O | 0 | 0.69 | – | – | < 10% | > 40% | – |
| O=C1NC(=S)NC(=O)C12CCc1ccc(Br)cc12 | 0.43 | 0.74 | – | – | < 10% | > 40% | – |
| CN1C(=O)NC(=O)C2(CCCCc3ccccc32)C1=O (stereo in doubt; 3h-2) | 0.1 | 0.98 | – | – | – | – | – |

| SMILES | fold change (FC) [1] | fold change (FC) [2] | fold change (FC) [3] | inhibition [4] | Activity [5] | inhibition [6] | Activity ([5]; filed as modulator) |
| --- | --- | --- | --- | --- | --- | --- | --- |
| CN1C(=O)NC(=O)C2(CCCc3ccccc32)C1=O (stereo in doubt; 2h-2) | -0.01 | 0.8 | – | – | – | – | – |
| N#CSC1CC2(C(=O)NC(=O)NC2=O)c2ccccc21 (stereo in doubt; 1y-2) | 0.3 | 0.67 | – | – | – | – | – |
| CC(C)c1ccc2c(c1)C1(CC2)C(=O)NC(=O)N(C)C1=O (stereo in doubt; 5h-2) | 0.14 | 0.97 | 0.59 | 12% | – | – | – |
| CN1C(=O)N(C)C(=O)C2(CCc3ccccc32)C1=O | 0.07 | 0.98 | – | – | – | – | – |
| CC1Cc2ccccc2C12C(=O)NC(=O)NC2=O (stereo in doubt; 10g-1) | 0.06 | 0.9 | – | – | – | – | – |
| O=C1NC(=O)C2(CCCCc3ccccc32)C(=O)N1 | 0.22 | 0.98 | 0.43 | 12% | – | – | – |
| N=C1NC(=O)C2(CCc3ccc(Br)cc32)C(=O)N1 (stereo unspecified) | 0.03 | 0.53 | – | – | < 10% | > 40% | – |
| O=C1NC(=O)C2(CCc3ccc(F)cc32)C(=O)N1 | 0.07 | 0.73 | – | – | < 10% | > 40% | – |
| COc1ccc2c(c1)C1(CC2)C(=O)NC(=S)NC1=O | 0.2 | 1.04 | – | – | < 10% | > 40% | – |
| CN1C(=O)NC(=O)C2(CCc3ccc(Br)cc32)C1=O (stereo in doubt; 6h-1) | 0.4 | 0.99 | 0.65 | 12% | – | – | – |
| N=C1NC(=O)C2(CCc3ccc(Cl)cc32)C(=O)N1 (stereo unspecified) | 0.02 | 0.53 | – | – | < 10% | > 40% | – |
| CCN1C(=O)NC(=O)C2(CCc3ccccc32)C1=O (stereo in doubt; 1i-1) | 0.05 | 0.86 | – | – | – | – | – |
| CN1C(=O)NC(=O)[C@@]2(CCc3ccccc32)C1=O | 0.08 | 0.78 | 0.56 | 12% | – | – | – |
| O=C1NC(=O)C2(CC(O)c3ccccc32)C(=O)N1 (stereo in doubt; 1t-1) | 0 | 0.98 | – | – | – | – | – |
| CCC1(c2ccccc2)C(=O)NC(=O)NC1=O | 0.43 | 0.88 | – | – | – | 12% | 43% |
| CN1C(=O)NC(=O)C2(CCCc3ccccc32)C1=O (stereo in doubt; 2h-1) | 0.13 | 0.9 | – | – | – | – | – |
| CN1C(=O)NC(=O)C2(CCc3ccc(Br)cc32)C1=O (stereo in doubt; 6h-2) | 0.35 | 1.09 | 0.61 | 12% | – | – | – |
| CC(C)c1ccc2c(c1)C1(CC2)C(=O)NC(=S)NC1=O | 0.54 | 0.87 | – | – | < 10% | > 40% | – |
| CCN1C(=O)NC(=O)C2(CCc3ccccc32)C1=O (stereo in doubt; 1i-2) | 0.11 | 0.86 | – | – | – | – | – |
| Cc1ccc2c(c1)C1(CC2)C(=O)NC(=O)N(C)C1=O (stereo in doubt; 4h-1) | 0.15 | 0.88 | 0.76 | 12% | – | – | – |
| O=C1NC(=S)NC(=O)C12CCc1ccccc12 | 0.02 | 0.78 | – | – | – | – | – |
| Cc1ccc2c(c1)C1(CC2)C(=O)NC(=N)NC1=O (stereo unspecified) | -0.09 | 0.36 | – | – | < 10% | > 40% | – |
| O=C1NC(=O)C2(CCc3ccc(Cl)cc32)C(=O)N1 | 0.15 | 0.88 | – | – | < 10% | > 40% | – |
